We go through one compound from patent US12012390B2, “Flavone compounds for the treatment and prophylaxis of hepatitis B virus disease” (priority 2018, dated 2024).

A word on the IC50: it is the concentration at which inhibition is half-maximal.

The test has as its system HBV in primary human hepatocytes (PHH). The test can be described thus: Cryopreserved primary human hepatocytes (PHH) HBV infection assay. It is filed as cell-based. The note with it: Hepatitis B virus, Hepatocyte, 216 h, HBV-infected cryopreserved PHH, 9 days post-compound treatment, extracellular HBsAg by CLIA; read-out: HBsAg IC50. The method in brief: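 Cryopreserved PHH (5.8×10^4 cells/well) were infected with 5.8×10^6 HBV genome equivalents in 4% PEG8000/1% DMSO medium. Extracellular HBsAg was measured by CLIA and HBV DNA by qPCR, with IC50 from 4-parameter logistic fits.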

`O=C(O)C1CC(OCCOc2ccc(-c3cc(=O)c4cccc(Cl)c4o3)cc2)C1` (stereo not shown) [Example 1, 3-[2-[4-(8-chloro-4-oxo-chromen-2-yl)phenoxy]ethoxy]cyclobutanecarboxylic acid]: the IC50 worked out at 130 nM.
